Experimental data reported in US20140243194A1, “Fungicidal substituted 1--1H-[1,2,4]triazole compounds” (BASF SE, priority 2011, published 2014).

Key:
[1] = system: Septoria tritici; experiment: Curative control of leaf blotch on wheat caused by Septoria tritici (Septtr K7); type: in vivo; conditions: 250 ppm spray seven days after inoculation (curative), untreated control 90
Protocol: (§1) The spray solutions were prepared in several steps: The stock solution were prepared: a mixture of acetone and/or dimethylsulfoxide and the wetting agent/emulsifier Wettol, which is based on ethoxylated alkylphenoles, in a relation (volume) solvent-emulsifier of 99 to 1 was added to 25 mg of the compound to give a total of 5 ml. Water was then added to total volume of 100 ml. This stock solution was diluted with the described solvent-emulsifier-water mixture to the given concentration. G2 Curative Control of Leaf Blotch on Wheat Caused by Septoria tritici (Septtr K7) Leaves of pot-grown wheat seedling were inoculated with an aqueous spore suspension of Septoria tritici. Then the trial plants were immediately transferred to a humid chamber at 18-22° C. and a relative humidity close to 100%. After 4 days the plants were transferred to a chamber with 18-22° C. and a relative humidity close to 70%. Seven days after inoculation the plants were sprayed to run-off with an aqueous suspension of the active compound or their mixture, prepared as described. Then the plants were transferred back to the chamber with 18-22° C. and a relative humidity close to 70%. After 4 weeks the extent of fungal attack on the leaves was visually assessed as % diseased leaf area.

[2] = system: Septoria tritici; experiment: Preventative control of leaf blotch on wheat caused by Septoria tritici (Septtr P7); type: in vivo; conditions: 16 ppm spray, wheat inoculated seven days later
Protocol: as §1, with “G2. Preventative” for “G2 Curative”, “P7)” for “K7)”, “seedling were sprayed to run-off with an aqueous suspension of the active compound or their mixture, prepared as described. The plants were allowed to air-dry. Seven days later the plants” for “seedling”, “70%.” for “70%. Seven days after inoculation the plants were sprayed to run-off with an aqueous suspension of the active compound or their mixture, prepared as described. Then the plants were transferred back to the chamber with 18-22° C. and a relative humidity close to 70%.”, “area. […]” for “area.”

[3] = system: Alternaria solani; experiment: Microtest: activity against early blight caused by Alternaria solani (Alteso); type: cell-based; conditions: micro titer plate, 405 nm, 7 days after inoculation, relative growth vs compound-free control (100%)
Protocol: Microtest The active compounds were formulated separately as a stock solution having a concentration of 10000 ppm in dimethyl sulfoxide. M1: Activity Against Early Blight Caused by Alternaria solani (Alteso) The stock solutions were mixed according to the ratio, pipetted onto a micro titer plate (MTP) and diluted with water to the stated concentrations. A spore suspension of Alternaria solani in an aqueous biomalt or yeast-bactopeptone-glycerine solution was then added. The plates were placed in a water vapor-saturated chamber at a temperature of 17° C. Using an absorption photometer, the MTPs were measured at 405 nm 7 days after the inoculation. The measured parameters were compared to the growth of the active compound-free control variant (100%) and the fungus-free and active compound-free blank value to determine the relative growth in % of the pathogens in the respective active compounds.

[4] = system: Phakopsora pachyrhizi; experiment: Protective control of soy bean rust on soy beans caused by Phakopsora pachyrhizi (Phakpa P2); type: in vivo; conditions: 250 ppm spray; soy bean inoculated 2 days later; untreated control 90
Protocol: The spray solutions were prepared in several steps:
The stock solution were prepared: a mixture of acetone and/or dimethylsulfoxide and the wetting agent/emulsifier Wettol, which is based on ethoxylated alkylphenoles, in a relation (volume) solvent-emulsifier of 99 to 1 was added to 25 mg of the compound to give a total of 5 ml. Water was then added to total volume of 100 ml. This stock solution was diluted with the described solvent-emulsifier-water mixture to the given concentration.
G3 Protective Control of Soy Bean Rust on Soy Beans Caused by Phakopsora pachyrhizi (Phakpa P2)
Leaves of pot-grown soy bean seedlings were sprayed to run-off with an aqueous suspension, containing the concentration of active ingredient or their mixture as described below. The plants were allowed to air-dry. The trial plants were cultivated for 2 days in a greenhouse chamber at 23-27° C. and a relative humidity between 60 and 80%. Then the plants were inoculated with spores of Phakopsora pachyrhizi. To ensure the success the artificial inoculation, the plants were transferred to a humid chamber with a relative humidity of about 95% and 20 to 24° C. for 24 h. The trial plants were cultivated for fourteen days in a greenhouse chamber at 23-27° C. and a relative humidity between 60 and 80%. The extent of fungal attack on the leaves was visually assessed as % diseased leaf area.

[5] = system: Botrytis cinerea; experiment: Preventative fungicidal control of Botrytis cinerea on leaves of green pepper (Botrci P1); type: in vivo; conditions: 150 ppm spray; green pepper inoculated next day; % diseased leaf area after 5 days; untreated control 100
Protocol: The spray solutions were prepared in several steps: The stock solution were prepared: a mixture of acetone and/or dimethylsulfoxide and the wetting agent/emulsifier Wettol, which is based on ethoxylated alkylphenoles, in a relation (volume) solvent-emulsifier of 99 to 1 was added to 25 mg of the compound to give a total of 5 ml. Water was then added to total volume of 100 ml. This stock solution was diluted with the described solvent-emulsifier-water mixture to the given concentration. G1 Preventative Fungicidal Control of Botrytis cinerea on Leaves of Green Pepper (Botrci P1) Young seedlings of green pepper were grown in pots to the 4 to 5 leaf stage. These plants were sprayed to run-off with an aqueous suspension, containing the concentration of active ingredient or their mixture mentioned in the table below. The next day the plants were inoculated with a aqueous biomalt solution containig the spore suspension of Botrytis cinerea. Then the plants were immediately transferred to a humid chamber. After 5 days at 22 to 24° C. and a relative humidity close to 100% the extent of fungal attack on the leaves was visually assessed as % diseased leaf area.

[6] = system: Botrytis cinerea; experiment: Long lasting control of Botrytis cinerea on leaves of green pepper (Botrci P7); type: in vivo; conditions: 63 ppm spray; green pepper inoculated 7 days later; untreated control 100
Protocol: The spray solutions were prepared in several steps: The stock solution were prepared: a mixture of acetone and/or dimethylsulfoxide and the wetting agent/emulsifier Wettol, which is based on ethoxylated alkylphenoles, in a relation (volume) solvent-emulsifier of 99 to 1 was added to 25 mg of the compound to give a total of 5 ml. Water was then added to total volume of 100 ml. This stock solution was diluted with the described solvent-emulsifier-water mixture to the given concentration. G4 Long Lasting Control of Botrytis cinerea on Leaves of Green Pepper (Botrci P7) Young seedlings of green pepper were grown in pots to the 4 to 5 leaf stage. These plants were sprayed to run-off with an aqueous suspension, containing the concentration of active ingredient or their mixture mentioned in the table below. The plants were then cultivated in the greenhouse for 7 days and then inoculated with a aqueous biomalt solution containig the spore suspension of Botrytis cinerea. Then the plants were immediately transferred to a humid chamber. After 5 days at 22 to 24° C. and a relative humidity close to 100% the extent of fungal attack on the leaves was visually assessed as % diseased leaf area.

[7] = system: Puccinia recondita; experiment: Preventative control of brown rust on wheat caused by Puccinia recondita (Puccrt P7); type: in vivo; conditions: 250 ppm spray; wheat inoculated seven days later; untreated plants 90% infected
Protocol: The spray solutions were prepared in several steps: The stock solution were prepared: a mixture of acetone and/or dimethylsulfoxide and the wetting agent/emulsifier Wettol, which is based on ethoxylated alkylphenoles, in a relation (volume) solvent-emulsifier of 99 to 1 was added to 25 mg of the compound to give a total of 5 ml. Water was then added to total volume of 100 ml. This stock solution was diluted with the described solvent-emulsifier-water mixture to the given concentration. G3. Preventative Control of Brown Rust on Wheat Caused by Puccinia recondita (Puccrt P7) The first two developed leaves of pot-grown wheat seedling were sprayed to run-off with an aqueous suspension, containing the concentration of active ingredient or their mixture as described below. Seven days later the plants were inoculated with spores of Puccinia recondita. To ensure the success the artificial inoculation, the plants were transferred to a humid chamber without light and a relative humidity of 95 to 99% and 20 to 24° C. for 24 h. Then the trial plants were cultivated for 6 days in a greenhouse chamber at 20-24° C. and a relative humidity between 65 and 70%. The extent of fungal attack on the leaves was visually assessed as % diseased leaf area.

Structure (SMILES)	Disease (%) at 250 ppm Septtr K7 [1]	Disease (%) at 16 ppm Septtr P7 ([2]; % diseased leaf area after 4 weeks, untreated control 90)	Disease (%) at 16 ppm Septtr P7 ([2]; section C table)	Growth (%) at 0.008 ppm Alteso [3]	Disease (%) at 250 ppm Phakpa P2 [4]	Disease (%) at 150 ppm Botrci P1 [5]	Disease (%) at 63 ppm Botrci p7 [6]	infection (% diseased leaf area) Puccrt P7 [7]
C#CCOC(Cn1cncn1)c1ccc(Oc2ccc(Cl)cc2)cc1Cl (centres unmarked) [DE 3801223 table 1, compound 30]	40%	60%	60%	48%	70%	60%	80%	–
C#CCOC(Cn1cncn1)(c1ccc(Oc2ccc(Cl)cc2)cc1Cl)C(C)C (centres unmarked) [I-4, 1-[2-[2-chloro-4-(4-chlorophenoxy)phenyl]-3-methyl-2-prop-2-ynoxy-butyl]-1,2,4-triazole]	–	–	–	–	–	–	–	0%
